Experimental data: US12465603B2, “Phthalazinone based modulators for the treatment of disease” (Soley Therapeutics, Inc., priority 2022, dated 2025)

How the values were obtained:
[1] = system: A2058 (ATCC, CRL-11147) cells; assay: Cell viability assay (Cell Titre Glo, 72 hours) in A2058 cells; type: cell-based; settings: Homo sapiens
Description: (§1) Example 31: Cell Viability Assays
(§2) Phthalazinone based modulators as described herein were dispensed into 384 well CulturPlates™ (PerkinElmer) using Echo 555 acoustic dispensing in 10-point dose response curves at a final top concentration of 30 μM following a 1 in 3 dilution series. A2058 (ATCC, CRL-11147) or PA1 (ECACC, 90013101) cells were added directly to a compound at a density of 5000 cells per well in a final volume of 50 μL and incubated for 72 hours at 37° C., 5% CO2. Viability was assessed using Cell Titre Glo® (Promega) according to the manufacturer's instructions (25 μL per well) and IC50 curves were generated for each inhibitor using IDBS ActivityBase data analysis software.

[2] = system: PA1 (ECACC, 90013101) cells; assay: Cell viability assay (Cell Titre Glo, 72 hours) in PA1 cells; type: cell-based; settings: Homo sapiens, PA-1
Description: as §1, §2

SMILES | IC50 [1] [nM] | IC50 [2] [nM]
CN1CCc2cccc(N3CCN(C(=O)c4nn(C)c(=O)c5ccccc45)CC3)c21 [Compound 79] | 10000 to 20000 | 10000 to 20000
Cn1nc(C(=O)N2CCN(c3cccc4c3OC(F)(F)O4)CC2)c2ccccc2c1=O [Compound 80] | ≤ 1000 | ≤ 1000
CCn1nc(C(=O)N2CCN(c3cccc(C(F)(F)F)c3)CC2)c2ccccc2c1=O [Compound 81, 2-ethyl-4-(4-(3-(trifluoromethyl)phenyl)piperazine-1-carbonyl)phthalazin-1(2H)-one] | 1000 to 10000 | ≤ 1000
CCn1nc(C(=O)N2CCN(c3cccc(F)n3)CC2)c2ccccc2c1=O [Compound 82] | > 20000 | 10000 to 20000
CCn1nc(C(=O)N2CCN(c3cncnc3OC)CC2)c2ccccc2c1=O [Compound 83] | 1000 to 10000 | ≤ 1000
CCn1nc(C(=O)N2CCN(c3cccc(OC)n3)CC2)c2ccccc2c1=O [Compound 84] | ≤ 1000 | ≤ 1000
CCn1nc(C(=O)N2CCN(c3cc(OC)ccn3)CC2)c2ccccc2c1=O [Compound 85] | 1000 to 10000 | 1000 to 10000
CCn1nc(C(=O)N2CCN(c3ncc(C#N)cc3F)CC2)c2ccccc2c1=O [Compound 86] | > 20000 | > 20000
CCn1nc(C(=O)N2CCN(c3ncc(F)cc3C)CC2)c2ccccc2c1=O [Compound 87] | > 20000 | > 20000
CCn1nc(C(=O)N2CCN(c3ncc(F)cc3C3CC3)CC2)c2ccccc2c1=O [Compound 88] | ≤ 1000 | ≤ 1000
CCn1nc(C(=O)N2CCN(c3cc(OC)c(Br)cn3)CC2)c2ccccc2c1=O [Compound 89] | > 20000 | > 20000
CCn1nc(C(=O)N2CCN(c3cccc4c3oc(=O)n4C)CC2)c2ccccc2c1=O [Compound 90] | > 20000 | > 20000
CCn1nc(C(=O)N2CCN(c3ncc(C#N)cc3C)CC2)c2ccccc2c1=O [Compound 91] | > 20000 | > 20000
CCn1nc(C(=O)N2CCN(c3ccc(F)c4ccoc34)CC2)c2ccccc2c1=O [Compound 92] | ≤ 1000 | ≤ 1000
CCn1nc(C(=O)N2CCN(c3ncc(C#N)cc3OC)CC2)c2ccccc2c1=O [Compound 93] | 1000 to 10000 | 1000 to 10000
CCn1nc(C(=O)N2CCN(c3nnccc3OC)CC2)c2ccccc2c1=O [Compound 94] | 10000 to 20000 | 1000 to 10000
CCn1nc(C(=O)N2CCN(c3ccnc4ccoc34)CC2)c2ccccc2c1=O [Compound 95] | ≤ 1000 | ≤ 1000
CCn1nc(C(=O)N2CCN(c3cccc4c3OC(C)(C)C4)CC2)c2ccccc2c1=O [Compound 96] | 1000 to 10000 | ≤ 1000
CCn1nc(C(=O)N2CCN(c3cccc4oc(=O)[nH]c34)CC2)c2ccccc2c1=O [Compound 97] | > 20000 | 10000 to 20000
CCn1nc(C(=O)N2CCN(c3ncncc3OC)CC2)c2ccccc2c1=O [Compound 98] | 1000 to 10000 | 1000 to 10000
CCn1nc(C(=O)N2CCN(c3nccnc3OC)CC2)c2ccccc2c1=O [Compound 99] | 1000 to 10000 | 1000 to 10000
CCn1nc(C(=O)N2CCN(c3ccccc3F)CC2)c2ccccc2c1=O [Compound 100] | 1000 to 10000 | ≤ 1000

SMILES | IC50 [1] [nM] | IC50 [2] [nM]
CCn1nc(C(=O)N2CCN(c3ccccc3OC)CC2)c2ccccc2c1=O [Compound 101] | ≤ 1000 | ≤ 1000
CCn1nc(C(=O)N2CCN(c3ccccc3C)CC2)c2ccccc2c1=O [Compound 102] | ≤ 1000 | ≤ 1000
CCn1nc(C(=O)N2CCN(c3ccccc3C3CC3)CC2)c2ccccc2c1=O [Compound 103] | ≤ 1000 | ≤ 1000
CCn1nc(C(=O)N2CCN(c3ccc(C(F)(F)F)cc3C)CC2)c2ccccc2c1=O [Compound 104] | 1000 to 10000 | 1000 to 10000
CCn1nc(C(=O)N2CCN(c3ccccc3Cl)CC2)c2ccccc2c1=O [Compound 105] | ≤ 1000 | ≤ 1000
CCn1nc(C(=O)N2CCN(c3ncccc3C)CC2)c2ccccc2c1=O [Compound 106] | 1000 to 10000 | 1000 to 10000
CCn1nc(C(=O)N2CCN(c3ncccc3F)CC2)c2ccccc2c1=O [Compound 107] | > 20000 | > 20000
CCn1nc(C(=O)N2CCN(c3ncccc3C3CC3)CC2)c2ccccc2c1=O [Compound 108] | ≤ 1000 | ≤ 1000
CCn1nc(C(=O)N2CCN(c3cc(F)ccn3)CC2)c2ccccc2c1=O [Compound 109] | 1000 to 10000 | 1000 to 10000
CCn1nc(C(=O)N2CCN(c3cc(C)ccn3)CC2)c2ccccc2c1=O [Compound 110] | 1000 to 10000 | 1000 to 10000
CCn1nc(C(=O)N2CCN(c3ccc(OC)nn3)CC2)c2ccccc2c1=O [Compound 111] | > 20000 | > 20000
CCn1nc(C(=O)N2CCN(c3cc(OC)cnn3)CC2)c2ccccc2c1=O [Compound 112] | > 20000 | > 20000
CCn1nc(C(=O)N2CCN(c3ncncc3C)CC2)c2ccccc2c1=O [Compound 113] | > 20000 | > 20000
CCn1nc(C(=O)N2CCN(c3ncc(F)cc3OC)CC2)c2ccccc2c1=O [Compound 114] | 1000 to 10000 | ≤ 1000
CCn1nc(C(=O)N2CCN(c3ccncc3C3CC3)CC2)c2ccccc2c1=O [Compound 115] | ≤ 1000 | ≤ 1000
CCn1nc(C(=O)N2CCN(c3cccc(C4CC4)c3)CC2)c2ccccc2c1=O [Compound 116, 4-(4-(3-cyclopropylphenyl)piperazine-1-carbonyl)-2-ethylphthalazin-1(2H)-one] | ≤ 1000 | ≤ 1000
CCn1nc(C(=O)N2CCN(c3ccc(Cl)cc3OC)CC2)c2ccccc2c1=O [Compound 117] | ≤ 1000 | ≤ 1000
CCn1nc(C(=O)N2CCN(c3cnccc3OC)CC2)c2ccccc2c1=O [Compound 118] | ≤ 1000 | ≤ 1000
CCn1nc(C(=O)N2CCN(c3ccc(F)cc3C3CC3)CC2)c2ccccc2c1=O [Compound 119] | ≤ 1000 | ≤ 1000
CCn1nc(C(=O)N2CCN(c3ccc(F)cc3OC(F)(F)F)CC2)c2ccccc2c1=O [Compound 120] | 1000 to 10000 | 1000 to 10000
CCn1nc(C(=O)N2CCN(c3cc(F)ccc3OC)CC2)c2ccccc2c1=O [Compound 121] | ≤ 1000 | ≤ 1000
CCn1nc(C(=O)N2CCN(c3cncnc3C3CC3)CC2)c2ccccc2c1=O [Compound 122] | 1000 to 10000 | ≤ 1000

SMILES | IC50 [1] [nM] | IC50 [2] [nM]
CCn1nc(C(=O)N2CCN(c3c(C)cnc4ccccc34)CC2)c2ccccc2c1=O [Compound 123] | > 20000 | > 20000
CCn1nc(C(=O)N2CCN(c3cccc4c3OC(F)(F)O4)CC2)c2ccccc2c1=O [Compound 124] | ≤ 1000 | ≤ 1000
CCn1nc(C(=O)N2CCN(c3ccc(C)s3)CC2)c2ccccc2c1=O [Compound 125] | > 20000 | 10000 to 20000
CCn1nc(C(=O)N2CCN(c3cccc4c3OCC4)CC2)c2ccccc2c1=O [Compound 126] | ≤ 1000 | ≤ 1000
CCn1nc(C(=O)N2CCN(c3ccc(OCCOC)cc3Cl)CC2)c2ccccc2c1=O [Compound 127] | > 20000 | > 20000
CCn1nc(C(=O)N2CCN(c3ccccc3OC(C)C)CC2)c2ccccc2c1=O [Compound 128] | 1000 to 10000 | ≤ 1000
CCn1nc(C(=O)N2CCN(c3ccccc3OCCOC)CC2)c2ccccc2c1=O [Compound 129] | > 20000 | > 20000
CCn1nc(C(=O)N2CCN(c3ccc(F)cc3OC)CC2)c2ccccc2c1=O [Compound 130] | ≤ 1000 | ≤ 1000
CCn1nc(C(=O)N2CCN(c3ccccc3C(C)(F)F)CC2)c2ccccc2c1=O [Compound 131] | 1000 to 10000 | 1000 to 10000
CCn1nc(C(=O)N2CCN(c3ccccc3OC3CC3)CC2)c2ccccc2c1=O [Compound 132] | 1000 to 10000 | ≤ 1000
CCn1nc(C(=O)N2CCN(c3ccccc3C#N)CC2)c2ccccc2c1=O [Compound 133] | > 20000 | 10000 to 20000
CCOc1ccccc1N1CCN(C(=O)c2nn(CC)c(=O)c3ccccc23)CC1 [Compound 134] | ≤ 1000 | ≤ 1000
CCn1nc(C(=O)N2CCN(c3ccccc3OC(F)(F)F)CC2)c2ccccc2c1=O [Compound 135] | ≤ 1000 | ≤ 1000
CCn1nc(C(=O)N2CCN(c3ncccc3C(F)(F)F)CC2)c2ccccc2c1=O [Compound 136] | 10000 to 20000 | 1000 to 10000
CCn1nc(C(=O)N2CCN(c3cccc(C(F)(F)F)c3OC)CC2)c2ccccc2c1=O [Compound 137] | > 20000 | 10000 to 20000
CCn1nc(C(=O)N2CCN(c3cccc(F)c3OC)CC2)c2ccccc2c1=O [Compound 138] | ≤ 1000 | ≤ 1000
CCn1nc(C(=O)N2CCN(c3ncc(C)cc3F)CC2)c2ccccc2c1=O [Compound 139] | > 20000 | > 20000
CCn1nc(C(=O)N2CCN(c3ncc(F)cc3C(F)(F)F)CC2)c2ccccc2c1=O [Compound 140] | 1000 to 10000 | 1000 to 10000
CCn1nc(C(=O)N2CCN(c3ccc(OC)c(F)c3)CC2)c2ccccc2c1=O [Compound 141] | > 20000 | > 20000
CCn1nc(C(=O)N2CCN(c3cc(F)cc(F)c3)CC2)c2ccccc2c1=O [Compound 142] | ≤ 1000 | ≤ 1000
CCn1nc(C(=O)N2CCN(c3cccnc3OC)CC2)c2ccccc2c1=O [Compound 143] | ≤ 1000 | ≤ 1000
